Results from patent publication US20230112470A1, “USE OF EGFR/HER2 TYROSINE KINASE INHIBITORS AND/OR HER2/HER3 ANTIBODIES FOR THE TREATMENT OF CANCERS WITH NRG1 FUSIONS” (Board of Regents, The University of Texas System, priority 2020, published 2023).

System: MDA175-VII (NRG1-DOC4 fusion) cells
Experiment: Cell viability by Cell Titer Glo assay, 72 hours treatment
Type: cell-based
Details: 72 h, read-out: Average IC50
Protocol: FIG. 1B. Representative dose response curves of MDA175-VII (NRG1-DOC4 fusion) treated with the indicated inhibitors for 72 hours. Cell viability was determined by Cell Titer Glo Assay.
Cell viability was determined by the Cell Titer Glo assay.
Drug screening and IC50 determination. Drug screening is performed as previously described. Briefly, cells are plated in 384-well plates (Greiner Bio-One) at 2000-3000 cells per well in technical triplicate. Seven different concentrations of covalent EGFR/HER2 TKIs and/or HER2/HER3 targeting antibodies or DMSO vehicle are added to reach a final volume of 40 μL per well. After 72 hours, 11 μL of Cell Titer Glo (Promega) is added to each well. Plates are incubated for a minimum of 10 minutes, and bioluminescence is determined using a FLUOstar OPTIMA plate reader (BMG LABTECH). Raw bioluminescence values are normalized to DMSO control treated cells, and values are plotted in GraphPad Prism. […] Drug screens are performed in technical triplicate on each plate and either duplicate or triplicate biological replicates.

Molecule	IC50
CCOc1cc2ncc(C#N)c(Nc3ccc(OCc4ccccn4)c(Cl)c3)c2cc1NC(=O)/C=C/CN(C)C [Neratinib, neratinib]	0.747 nM

Same assay, conditions: MDA175-VII (NRG1-DOC4 fusion) cells, single HER2 inhibitor, 72 hours; read-out: Average IC50

Molecule	IC50
CN(C)C/C=C/C(=O)Nc1cc2c(Nc3ccc(F)c(Cl)c3)ncnc2cc1O[C@H]1CCOC1 [Afatinib, afatinib]	0.891 nM
COc1cc2ncnc(Nc3ccc(F)c(Cl)c3)c2cc1NC(=O)/C=C/CN1CCCCC1 [Dacomitinib, dacomitinib]	1.18 nM
C#Cc1cccc(Nc2ncnc3cc(OCCOC)c(OCCOC)cc23)c1 [Erlotinib, erlotinib]	1440 nM
C=CC(=O)N1CCC[C@@H](n2nc(-c3ccc(Oc4ccccc4)cc3)c3c(N)ncnc32)C1 [Ibrutinib, ibrutinib]	86.9 nM
CS(=O)(=O)CCNCc1ccc(-c2ccc3ncnc(Nc4ccc(OCc5cccc(F)c5)c(Cl)c4)c3c2)o1 [Lapatinib, lapatinib]	98.6 nM
C=CC(=O)Nc1cc(Nc2nccc(-c3cn(C)c4ccccc34)n2)c(OC)cc1N(C)CCN(C)C [Osimertinib, osimertinib]	459 nM
CCOc1cc2ncc(C#N)c(Nc3ccc(OCc4ccccn4)c(Cl)c3)c2cc1NC(=O)/C=C/[C@H]1CCCN1C [Pyrotinib, pyrotinib]	10.4 nM
CNC(=O)CN1CCC(Oc2cc3c(Nc4cccc(Cl)c4F)ncnc3cc2OC)CC1 [Sapitinib, sapitinib]	316 nM

Same assay, conditions: MDA175-VII cells, anti-HER2 antibody alone (+DMSO), 72 hours; read-out: Average IC50

Molecule	IC50
Pertuzumab: recombinant, humanized monoclonal antibody that inhibits dimerization of HER2	51.5 nM
T-DM1	653 nM

Same assay, conditions: MDA175-VII cells, single agent

Molecule	inhibition of cell viability (in words)
Pertuzumab: recombinant, humanized monoclonal antibody that inhibits dimerization of HER2	potently inhibited cell viability
